# Measured values reported in US8802679B2, “Glycine compound” (Astellas Pharma Inc., priority 2009, dated 2014).
# pIC50: −log10 of the molar value. Counter-ions that a name gives are not always drawn.
# Assays:
# [1] = target: human VAP-1 enzyme (SSAO) (Homo sapiens (Human), UniProt Q16853); assay: Inhibitory effect on human VAP-1 enzyme (SSAO) activity, radiochemistry-enzymatic assay with 14C-benzylamine; assay type: biochemical; details: enzyme from CHO cells expressing human VAP-1; 14C-benzylamine 1×10^−5 mol/L
# Protocol: Inhibitory Effect of Compound on Human VAP-1 Enzyme (SSAO) Activity
# (§1) A human VAP-1 enzyme (SSAO) activity was measured by a radiochemistry-enzymatic assay using ^14C-benzylamine as an artificial substrate. An enzyme suspension prepared from CHO (Chinese Hamster Ovary) cells stably expressing a human VAP-1 enzyme (SSAO) was preincubated with the compound of the present invention in a 96-well microplate at room temperature for 30 minutes. Subsequently, the enzyme suspension was incubated with ^14C-benzylamine (a final concentration of 1×10^−5 mol/L) to a final volume of […] at 37° C. for 1 hour. The enzymatic reaction was stopped by the addition of 2 mol/L (50 μL) of citric acid. The oxidation products were extracted directly in a 200-μL toluene scintillator, and the radioactivity was measured with a scintillation spectrometer.
# (§2) In addition, the inhibitory activity is expressed in IC50 (nmol/L).
# [2] = target: rat VAP-1 enzyme (SSAO) (Rattus norvegicus (Rat), UniProt O08590); assay: Inhibitory effect on rat VAP-1 enzyme (SSAO) activity, radiochemistry-enzymatic assay with 14C-benzylamine; assay type: biochemical; details: enzyme from CHO cells expressing rat VAP-1; 14C-benzylamine 1×10^−5 mol/L
# Protocol: Inhibitory Effect of Compound on Rat VAP-1 Enzyme (SSAO) Activity
# as §1, with “rat VAP-enzyme 1” for “human VAP-1 enzyme”
# as §2
# [3] = system: VAP-1 enzyme activity in plasma; assay: Plasma VAP-1 enzyme activity after oral administration to rats (radio-enzyme assay); assay type: in vivo, Wistar male rats; details: rat, oral 1 mg/kg; for Inhibition Ratio (%) of plasma VAP-1 activity, 1 h: 1 h after administration; for Inhibition Ratio (%) of plasma VAP-1 activity, 3 h: 3 h after administration; for Inhibition Ratio (%) of plasma VAP-1 activity, 6 h: 6 h after administration; for Inhibition Ratio (%) of plasma VAP-1 activity, 12 h: 12 h after administration
# Protocol: Eight-week to twelve-week Wistar male rats were fasted for 20 hours, and orally administered with a test drug (1 mg/1 kg). Heparin blood collection from the tail vein was performed immediately before the administration, and at 1 h, 3 h, 6 h, and 12 h after the administration. The resulting blood was subjected to centrifugation at 14000 rpm for 5 minutes to separate plasma, and the VAP-1 enzyme activity in the resulting plasma was measured by a radio-enzyme assay method.
# For the radio-enzyme assay method, ^14C-benzylamine which is a synthetic substrate (10 μM) was reacted with the resulting plasma at 37° C., and the resulting metabolite was extracted with a mixture of toluene/ethyl acetate. The radioactivity was measured and taken as a VAP-1 enzyme activity in the plasma. The effect of the test drug was calculated from the ratio (%) of the VAP-1 activity after the administration of the test drug relative to the VAP-1 activity in the plasma immediately before the administration (100%).
# Chain of human VAP-1 enzyme (SSAO) (Q16853 whole entry): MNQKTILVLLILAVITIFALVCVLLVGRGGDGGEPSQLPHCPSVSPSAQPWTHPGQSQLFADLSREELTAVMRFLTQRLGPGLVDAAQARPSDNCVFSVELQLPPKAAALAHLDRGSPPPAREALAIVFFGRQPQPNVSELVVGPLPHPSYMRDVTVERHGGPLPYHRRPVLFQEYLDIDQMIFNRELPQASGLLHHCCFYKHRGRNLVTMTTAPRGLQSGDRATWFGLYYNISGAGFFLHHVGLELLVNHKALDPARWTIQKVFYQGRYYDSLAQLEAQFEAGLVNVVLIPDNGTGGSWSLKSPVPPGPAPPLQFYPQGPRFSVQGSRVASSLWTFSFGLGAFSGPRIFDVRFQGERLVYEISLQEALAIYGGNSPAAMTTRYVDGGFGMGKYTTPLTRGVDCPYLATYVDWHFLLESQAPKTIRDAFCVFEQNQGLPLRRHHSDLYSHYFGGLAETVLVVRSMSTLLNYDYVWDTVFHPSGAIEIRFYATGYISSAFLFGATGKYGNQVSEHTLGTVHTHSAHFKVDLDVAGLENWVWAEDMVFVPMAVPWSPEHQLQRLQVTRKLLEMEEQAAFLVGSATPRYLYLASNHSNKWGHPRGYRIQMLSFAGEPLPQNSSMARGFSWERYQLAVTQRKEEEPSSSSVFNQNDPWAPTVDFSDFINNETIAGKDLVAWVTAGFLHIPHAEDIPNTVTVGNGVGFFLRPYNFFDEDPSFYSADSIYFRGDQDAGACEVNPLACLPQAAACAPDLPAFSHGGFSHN
# Chain of rat VAP-1 enzyme (SSAO) (O08590 whole entry): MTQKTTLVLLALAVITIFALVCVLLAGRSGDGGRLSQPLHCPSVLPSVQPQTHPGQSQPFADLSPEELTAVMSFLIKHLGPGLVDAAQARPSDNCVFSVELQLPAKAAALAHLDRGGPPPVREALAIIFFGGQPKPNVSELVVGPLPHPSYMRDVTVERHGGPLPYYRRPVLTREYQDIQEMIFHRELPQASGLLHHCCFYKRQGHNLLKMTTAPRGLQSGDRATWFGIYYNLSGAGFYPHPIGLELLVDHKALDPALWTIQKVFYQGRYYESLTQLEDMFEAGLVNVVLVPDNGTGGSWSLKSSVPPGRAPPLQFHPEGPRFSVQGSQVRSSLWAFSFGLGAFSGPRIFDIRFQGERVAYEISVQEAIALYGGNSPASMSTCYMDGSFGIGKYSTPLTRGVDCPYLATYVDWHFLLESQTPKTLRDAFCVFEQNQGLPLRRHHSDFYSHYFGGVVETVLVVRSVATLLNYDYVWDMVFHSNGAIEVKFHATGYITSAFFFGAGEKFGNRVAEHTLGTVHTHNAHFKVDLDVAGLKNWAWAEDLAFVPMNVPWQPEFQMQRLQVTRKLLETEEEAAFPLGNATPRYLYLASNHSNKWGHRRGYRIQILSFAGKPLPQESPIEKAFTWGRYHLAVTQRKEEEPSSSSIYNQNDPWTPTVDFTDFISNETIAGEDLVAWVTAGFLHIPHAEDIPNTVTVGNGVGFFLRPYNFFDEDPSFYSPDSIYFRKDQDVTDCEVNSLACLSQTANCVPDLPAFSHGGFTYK
Compound,pIC50 [1],pIC50 [2],"Inhibition Ratio (%) of plasma VAP-1 activity, 1 h [3] [%]","Inhibition Ratio (%) of plasma VAP-1 activity, 3 h [3] [%]","Inhibition Ratio (%) of plasma VAP-1 activity, 6 h [3] [%]","Inhibition Ratio (%) of plasma VAP-1 activity, 12 h [3] [%]"
CN(Cc1cccc(-c2cnc(N3CCC(c4cccnc4)CC3)nc2)c1)C(=O)CN [Ex 190],7.64,7.72,42,48,41,11
CN(Cc1cccc(-c2cnc(N3CCN(c4ncc(C(=O)O)cc4Cl)CC3)nc2)c1)C(=O)CN [Example 32],7.74,8.00,68,70,58,45
CN(Cc1cccc(-c2cnc(N3CCC(N4CCOCC4)CC3)nc2)c1)C(=O)CN [Example 51],7.32,7.68,30,37,43,32
CN(Cc1cccc(-c2cnc(N3CC[C@H](F)C3)nc2)c1)C(=O)CN [Example 16],7.31,8.13,83,83,53,42
"Cc1cc(/C=C/C(=O)O)cnc1N1CCN(c2ncc(-c3cccc(CN(C)C(=O)CN)c3)cn2)CC1 [Example 19, (2E)-3-(6-{-4-[5-(3-{[glycyl(methyl)amino]methyl}phenyl)pyrimidin-2-yl]piperazin-1-yl}-5-methylpyridin-3-yl)acrylic acid dihydrochloride]",8.16,8.16,84,79,75,63
"Cc1cccnc1N1CCN(c2ncc(-c3cccc(CN(C)C(=O)CN)c3)cn2)CC1 [Example 3, N-methyl-N-(3-{2-[4-(3-methylpyridin-2-yl)piperazin-1-yl]pyrimidin-5-yl}benzyl)glycinamide L-tartrate]",7.49,7.66,65,77,71,47
CN(Cc1cccc(-c2cnc(N3CCS(=O)(=O)CC3)nc2)c1)C(=O)CN [Ex 216],7.05,7.40,25,−7,15,25
CN(Cc1cccc(-c2cnc(N3CCC(O)CC3)nc2)c1)C(=O)CN [Ex 84],6.85,7.82,16,20,17,
"CN(Cc1cccc(-c2cnc(N3CCN(c4ccc(C(=O)O)cc4Cl)CC3)nc2)c1)C(=O)CN [Example 263, 3-chloro-4-{4-[5-(3-{[glycyl(methyl)amino)methyl}phenyl)pyrimidin-2-yl]piperazin-1-yl}benzoic acid dihydrochloride]",7.60,7.82,97,95,80,75
CN(Cc1cccc(-c2cnc(N3CC=C(c4cccnc4)CC3)nc2)c1)C(=O)CN [Ex 191],8.15,7.85,35,43,48,20
CN(Cc1cccc(-c2cnc(N3CCCC3)nc2)c1)C(=O)CN [Ex 75],7.31,8.44,78,58,38,24
Cc1ncccc1N1CCN(c2ncc(-c3cccc(CN(C)C(=O)CN)c3)cn2)CC1 [Ex 91],7.74,7.92,68,68,68,44
CN(Cc1cccc(-c2cnc(N3Cc4cccnc4C3)nc2)c1)C(=O)CN [Ex 95],7.96,8.24,70,67,71,21
CN(Cc1cccc(-c2cnc(N3CCN(c4ncc(/C=C/C(=O)O)cc4Cl)CC3)nc2)c1)C(=O)CN [Example 33],7.51,7.68,84,87,97,83
CN(Cc1cccc(-c2cnc(N3CCN(c4ncccc4Cl)CC3)nc2)c1)C(=O)CN [Ex 147],7.14,7.36,70,79,75,66
Cc1nc2c(s1)CN(c1ncc(-c3cccc(CN(C)C(=O)CN)c3)cn1)CC2 [Ex 102],7.70,7.92,65,62,71,40
C[C@@H]1CN(c2ccc(-c3cccc(CN(C)C(=O)CN)c3)cn2)C[C@H](C)O1 [Ex 80],7.09,7.41,48,43,26,21
"CN(Cc1cccc(-c2cnc(N3CCOCC3)nc2)c1)C(=O)CN [Example 69, N-methyl-N-[3-(2-morpholin-4-ylpyrimidin-5-yl)benzyl]glycinamide L-tartrate]",7.49,8.01,72,56,39,24
CN(Cc1cccc(-c2cnc(N3CCOC(CO)C3)nc2)c1)C(=O)CN (stereo not shown) [Ex 79],7.18,7.47,24,21,15,14
"CN(Cc1cccc(-c2cnc(N3CCN(c4ccc(C#N)nc4)CC3)nc2)c1)C(=O)CN [Example 261, N-(3-{2-[4-(6-cyanopyridin-3-yl)piperazin-1-yl]pyrimidin-5-yl}benzyl)-N-methylglycinamide L-tartrate]",7.77,7.68,36,44,45,32
Cc1cc(CCC(=O)O)cnc1N1CCN(c2ncc(-c3cccc(CN(C)C(=O)CN)c3)cn2)CC1 [Ex 66],,,78,81,74,67
C[C@@H]1CN(c2ncc(-c3cccc(CN(C)C(=O)CN)c3)cn2)C[C@H](C)O1 [Ex 78],,,31,18,3,−4
